ChEMBL document CHEMBL1201862, “PubChem BioAssay data set” (2004)
One block for each compound: values may come before it. Calls of active or inactive are those of the source.

How the values were obtained:
[1] = general mammalian cell viability loss – inhibitor set, cherry-pick, set 2, cytotoxicity control for miR-122 modulator project, dose response (AID 720697); format: functional, cell-based
[2] = tested on: SN12K1; test: cells; format: functional; settings: Homo sapiens
[3] = tested on: P388; test: cells; format: functional; settings: Mus musculus
[4] = tested on: P388/ADR; test: cells; format: functional; settings: Mus musculus
[5] = cytotoxicity in untransfected HEK293T cells – cell-based, CellTiter-Glo luminescence, dry powder, counter-screen for EBV LMP1 inhibitor project, dose response (AID 624372); format: functional, HEK293
[6] = target: T1, Sentrin-specific protease 8 (Homo sapiens, UniProt Q96LD8); format: functional
T1 sequence (Q96LD8 whole entry): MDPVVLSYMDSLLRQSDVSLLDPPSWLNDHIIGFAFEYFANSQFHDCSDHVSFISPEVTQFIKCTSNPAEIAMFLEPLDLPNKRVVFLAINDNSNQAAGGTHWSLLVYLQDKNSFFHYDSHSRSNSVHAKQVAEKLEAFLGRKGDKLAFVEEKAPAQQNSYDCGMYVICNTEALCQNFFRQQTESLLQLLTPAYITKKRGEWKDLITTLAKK

[7] = target: T2, Caspase-3 (Homo sapiens, UniProt P42574); test: Dose-response confirmation of uHTS inhibitor hits of Sentrin-Specific Protease 8 in a Caspase-3 Fluorescence assay.; format: functional
T2 sequence (P42574 whole entry): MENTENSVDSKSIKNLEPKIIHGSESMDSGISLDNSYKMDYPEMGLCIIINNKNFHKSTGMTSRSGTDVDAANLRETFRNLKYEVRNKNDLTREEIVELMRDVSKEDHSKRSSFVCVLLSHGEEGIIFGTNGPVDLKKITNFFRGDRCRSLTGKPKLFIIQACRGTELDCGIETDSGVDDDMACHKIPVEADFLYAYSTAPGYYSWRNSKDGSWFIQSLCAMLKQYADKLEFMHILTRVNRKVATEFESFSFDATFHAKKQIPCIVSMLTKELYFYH

[8] = target: T1, Sentrin-specific protease 8; format: functional; remark: listed apart in the source
[9] = target: T3, Polyadenylate-binding protein 1 (Homo sapiens, UniProt P11940); test: MLLE domain peptide-binding blockers, IC50 – biochemical, fluorescence polarization, FITC-PAM2 peptide, dose response (AID 602259); format: functional; settings: read-out: IC50_Mean
T3 sequence (P11940 whole entry, the tested form may be a part): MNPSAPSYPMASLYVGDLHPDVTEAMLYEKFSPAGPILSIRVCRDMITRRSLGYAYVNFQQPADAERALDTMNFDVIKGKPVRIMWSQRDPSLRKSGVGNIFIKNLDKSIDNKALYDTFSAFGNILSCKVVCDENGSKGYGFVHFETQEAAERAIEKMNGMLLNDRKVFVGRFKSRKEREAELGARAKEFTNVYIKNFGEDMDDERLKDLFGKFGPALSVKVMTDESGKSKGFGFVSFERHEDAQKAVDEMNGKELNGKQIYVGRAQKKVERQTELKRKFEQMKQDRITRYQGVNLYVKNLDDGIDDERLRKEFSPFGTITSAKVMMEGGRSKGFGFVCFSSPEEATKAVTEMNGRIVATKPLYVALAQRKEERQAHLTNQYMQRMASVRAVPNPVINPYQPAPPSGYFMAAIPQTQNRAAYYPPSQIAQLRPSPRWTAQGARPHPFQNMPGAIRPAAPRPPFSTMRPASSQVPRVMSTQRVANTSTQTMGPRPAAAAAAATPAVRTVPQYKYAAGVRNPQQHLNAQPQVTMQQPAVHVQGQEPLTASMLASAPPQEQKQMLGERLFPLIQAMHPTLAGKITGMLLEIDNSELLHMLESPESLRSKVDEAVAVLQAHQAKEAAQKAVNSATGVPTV

[10] = target: T3, Polyadenylate-binding protein 1; test: MLLE binding blockers, Cy5 peptide tracer – biochemical, fluorescence polarization, Cy5-PAM2 peptide, secondary, miRNA deadenylation inhibitor project, dose response (AID 602260); format: functional; settings: read-out: IC50_Mean
[11] = inhibition of bursicon-driven LGR2 cAMP signaling – cell-based, HEK293, CRE-luciferase reporter, cherry pick, dose response (AID 743342); format: functional
[12] = target: Potassium channel subfamily K member 9 (Homo sapiens, UniProt Q9NPC2); test: KCNK9 flux blockade, concentration-response – cell-based, FluxOR thallium flux, selectivity assay for TASK1 inhibitor project, SAR follow-up (AID 652211); format: functional;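 note: potency is for inhibitors of the channel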
Chain of Potassium channel subfamily K member 9 (Q9NPC2 whole entry): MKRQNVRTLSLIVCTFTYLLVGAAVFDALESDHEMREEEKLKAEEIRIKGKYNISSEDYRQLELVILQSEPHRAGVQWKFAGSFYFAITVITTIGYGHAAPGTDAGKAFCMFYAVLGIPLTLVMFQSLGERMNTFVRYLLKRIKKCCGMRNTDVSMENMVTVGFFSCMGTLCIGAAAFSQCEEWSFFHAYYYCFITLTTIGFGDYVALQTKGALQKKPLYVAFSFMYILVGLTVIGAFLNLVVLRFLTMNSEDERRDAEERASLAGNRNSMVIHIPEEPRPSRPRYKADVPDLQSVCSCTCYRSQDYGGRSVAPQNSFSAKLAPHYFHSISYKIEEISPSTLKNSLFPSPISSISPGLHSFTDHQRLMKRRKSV

[13] = target: Potassium channel subfamily K member 3 (Homo sapiens, UniProt O14649); test: inhibition of human KCNK3 channel flux – CHO cells, FluxOR thallium flux, SAR follow-up (AID 652212); format: functional
Chain of Potassium channel subfamily K member 3 (O14649 whole entry): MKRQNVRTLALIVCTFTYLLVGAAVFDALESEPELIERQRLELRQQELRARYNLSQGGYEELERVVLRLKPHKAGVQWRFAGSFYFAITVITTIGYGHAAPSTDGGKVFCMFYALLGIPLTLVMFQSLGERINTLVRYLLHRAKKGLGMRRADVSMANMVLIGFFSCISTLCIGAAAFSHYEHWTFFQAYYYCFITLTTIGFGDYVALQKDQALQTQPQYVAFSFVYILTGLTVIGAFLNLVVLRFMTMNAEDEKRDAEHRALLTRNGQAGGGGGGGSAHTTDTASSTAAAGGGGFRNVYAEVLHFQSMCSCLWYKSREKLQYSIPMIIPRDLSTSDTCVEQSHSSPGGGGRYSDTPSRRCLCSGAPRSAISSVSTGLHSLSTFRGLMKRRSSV

[14] = Counterscreen for activators of the function of SWI/SNF related, matrix associated, actin dependent regulator of chromatin, subfamily a, member 2 (SMARCA2, BRM): Luminescence-based cell-based high throughput dose response assay to identify non-selective compounds using the VP16 reporter assay.; format: functional
[15] = target: T4, Short transient receptor potential channel 4 (Mus musculus, UniProt Q9QUQ5); test: block of DAMGO-driven TRPC4 calcium entry – cell-based, HEK293 TRPC4/mu-opioid, Fluo-4 calcium, dose response (AID 434942); format: functional;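 note: potency of inhibitors blocking the TRPC4 calcium response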
T4 sequence (Q9QUQ5 whole entry): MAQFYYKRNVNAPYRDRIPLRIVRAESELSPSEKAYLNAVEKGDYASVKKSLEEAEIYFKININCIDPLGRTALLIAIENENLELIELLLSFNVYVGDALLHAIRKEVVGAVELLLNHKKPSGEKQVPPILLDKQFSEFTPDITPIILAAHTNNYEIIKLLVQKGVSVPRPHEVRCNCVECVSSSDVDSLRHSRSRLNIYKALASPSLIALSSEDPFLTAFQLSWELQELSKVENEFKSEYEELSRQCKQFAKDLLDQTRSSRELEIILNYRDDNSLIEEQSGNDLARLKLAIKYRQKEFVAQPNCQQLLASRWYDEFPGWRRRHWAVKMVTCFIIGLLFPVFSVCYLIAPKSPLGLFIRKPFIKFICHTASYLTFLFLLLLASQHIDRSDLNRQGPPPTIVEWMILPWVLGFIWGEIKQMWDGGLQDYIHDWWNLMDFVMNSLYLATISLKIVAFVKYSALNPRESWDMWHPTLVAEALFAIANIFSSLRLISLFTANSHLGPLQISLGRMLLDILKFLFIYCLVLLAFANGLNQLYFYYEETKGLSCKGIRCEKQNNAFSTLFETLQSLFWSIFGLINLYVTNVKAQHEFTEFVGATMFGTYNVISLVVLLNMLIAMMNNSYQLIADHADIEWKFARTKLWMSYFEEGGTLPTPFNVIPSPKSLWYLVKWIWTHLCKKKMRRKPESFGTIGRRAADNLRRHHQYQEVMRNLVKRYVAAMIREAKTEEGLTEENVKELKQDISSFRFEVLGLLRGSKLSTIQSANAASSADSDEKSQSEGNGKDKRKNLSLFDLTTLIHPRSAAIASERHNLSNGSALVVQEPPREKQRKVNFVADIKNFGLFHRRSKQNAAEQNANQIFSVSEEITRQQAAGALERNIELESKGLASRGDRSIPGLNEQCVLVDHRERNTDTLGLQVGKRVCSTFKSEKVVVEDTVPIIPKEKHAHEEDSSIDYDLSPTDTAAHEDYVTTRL

[16] = target: SWI/SNF-related matrix-associated actin-dependent regulator of chromatin subfamily A member 2 (Homo sapiens, UniProt P51531); test: Luminescence-based cell-based high throughput dose response assay to identify activators of the function of SWI/SNF related, matrix associated, actin dependent regulator of chromatin, subfamily a, member 2 (SMARCA2, BRM).; format: functional
Chain of SWI/SNF-related matrix-associated actin-dependent regulator of chromatin subfamily A member 2 (P51531 whole entry): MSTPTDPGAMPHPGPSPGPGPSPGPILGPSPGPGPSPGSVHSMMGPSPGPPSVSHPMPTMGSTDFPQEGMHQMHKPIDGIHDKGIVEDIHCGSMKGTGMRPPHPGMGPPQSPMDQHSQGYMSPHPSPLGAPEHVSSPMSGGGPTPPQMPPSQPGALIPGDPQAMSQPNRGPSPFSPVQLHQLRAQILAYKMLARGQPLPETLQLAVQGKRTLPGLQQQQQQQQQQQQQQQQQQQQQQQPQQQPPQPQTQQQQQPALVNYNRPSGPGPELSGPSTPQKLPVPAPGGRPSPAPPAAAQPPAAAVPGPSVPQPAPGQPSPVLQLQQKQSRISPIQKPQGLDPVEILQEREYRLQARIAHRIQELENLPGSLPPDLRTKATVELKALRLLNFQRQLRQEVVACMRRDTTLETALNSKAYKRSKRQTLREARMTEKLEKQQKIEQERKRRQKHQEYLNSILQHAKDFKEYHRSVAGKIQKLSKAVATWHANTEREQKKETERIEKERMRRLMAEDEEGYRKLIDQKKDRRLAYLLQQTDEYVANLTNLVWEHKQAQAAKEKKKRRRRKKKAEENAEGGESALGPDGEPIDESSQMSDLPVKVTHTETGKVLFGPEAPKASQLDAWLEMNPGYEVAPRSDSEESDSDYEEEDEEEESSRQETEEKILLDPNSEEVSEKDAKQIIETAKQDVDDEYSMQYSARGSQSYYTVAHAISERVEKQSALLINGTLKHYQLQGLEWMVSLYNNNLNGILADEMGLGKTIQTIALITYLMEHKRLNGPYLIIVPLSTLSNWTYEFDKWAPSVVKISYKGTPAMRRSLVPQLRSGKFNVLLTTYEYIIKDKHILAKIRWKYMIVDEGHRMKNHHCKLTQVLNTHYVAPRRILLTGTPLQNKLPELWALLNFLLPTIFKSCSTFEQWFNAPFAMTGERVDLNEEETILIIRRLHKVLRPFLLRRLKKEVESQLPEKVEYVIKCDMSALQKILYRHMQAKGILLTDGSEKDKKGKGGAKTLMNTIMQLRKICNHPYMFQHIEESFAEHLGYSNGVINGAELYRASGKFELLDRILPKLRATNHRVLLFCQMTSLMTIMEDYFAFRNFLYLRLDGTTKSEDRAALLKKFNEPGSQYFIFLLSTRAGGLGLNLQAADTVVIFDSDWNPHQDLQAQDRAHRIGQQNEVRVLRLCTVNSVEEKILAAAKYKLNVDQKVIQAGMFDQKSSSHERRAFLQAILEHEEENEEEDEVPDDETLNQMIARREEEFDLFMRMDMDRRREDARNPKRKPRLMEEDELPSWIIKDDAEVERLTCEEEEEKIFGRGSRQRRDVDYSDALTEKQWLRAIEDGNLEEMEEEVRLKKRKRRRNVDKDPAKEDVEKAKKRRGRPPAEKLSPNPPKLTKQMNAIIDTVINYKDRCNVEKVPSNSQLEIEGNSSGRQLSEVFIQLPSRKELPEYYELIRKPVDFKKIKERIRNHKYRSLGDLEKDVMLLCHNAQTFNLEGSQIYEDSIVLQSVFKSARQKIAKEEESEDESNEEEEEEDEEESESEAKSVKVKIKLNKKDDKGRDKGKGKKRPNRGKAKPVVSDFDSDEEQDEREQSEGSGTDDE

[17] = target: T5, Caspase-6 (Homo sapiens, UniProt P55212); test: inhibition of CASP6 peptide cleavage – biochemical, VEID-R110 fluorescence, dry powder retest, dose response (AID 743332)
T5 sequence (P55212 whole entry): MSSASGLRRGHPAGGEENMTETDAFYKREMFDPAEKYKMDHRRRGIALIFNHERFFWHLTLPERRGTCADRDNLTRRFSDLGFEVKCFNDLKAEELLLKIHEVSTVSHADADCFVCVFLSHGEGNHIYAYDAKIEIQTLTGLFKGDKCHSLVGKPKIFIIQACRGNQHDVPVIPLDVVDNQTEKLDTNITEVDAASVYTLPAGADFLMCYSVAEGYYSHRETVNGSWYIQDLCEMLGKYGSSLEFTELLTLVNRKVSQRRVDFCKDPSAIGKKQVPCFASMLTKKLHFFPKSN

[18] = viability loss in HepG2 hepatoma cells – cell-based, cherry-picks, set 5, cytotoxicity control, dose response (AID 1053118); format: functional
[19] = viability loss in HEK293 kidney cells – cell-based, cherry-picks, set 5, cytotoxicity control, dose response (AID 1053117); format: functional

SMILES: Cn1c(-c2ccc(N)cc2)nc2ccccc21
AC50 [1]: 9.34 µM (active)

SMILES: C/C(=N\NC(=S)N1CCN(C2CCCCCC2)CC1)c1ccccn1
GI50 [2]: 0.01 µM (active)
GI50 [3]: < 0.01 µM (active)
GI50 [4]: < 0.01 µM (active)
AbsAC35 [5]: 162.11 µM

IC50 [7]: 4.41 µM (active)
IC50 [9]: > 66 µM (inactive)
IC50 [10]: > 66 µM (inactive)
SMILES: Cc1ccc(N2C(=O)[C@@H]3[C@H](C2=O)C2c4ccccc4C=CN2[C@@H]3C(=O)c2ccco2)cc1 (some centres undefined)
IC50 [6]: 0.785 µM (active)
IC50 [8]: 5.38 µM (active)

SMILES: C[C@H](CO)N1C[C@H](C)[C@H](CN(C)C(=O)Nc2ccc3c(c2)OCO3)OCCCC[C@H](C)Oc2ccc(NC(=O)NC3CCCCC3)cc2C1=O
AC50 [11]: 9.97 µM (active)

IC50 [12]: 14.7 µM (active)
IC50 [13]: 0.134 µM (active)
SMILES: CCOc1ccccc1NC(=O)c1cccc(NC(=O)c2ccc(C)cc2)c1

SMILES: Cn1cc(-c2nc3ccccc3[nH]2)c2ccccc21
EC50 [14]: > 91.2 µM (inactive)
EC50 [15]: 3.76 µM (active)
EC50 [16]: > 91.2 µM (inactive)

AC50 [17]: 23.9 µM (active)
SMILES: O=C(c1ccc(-n2cccc2)cc1)N1CCN(S(=O)(=O)c2ccccc2)CC1

SMILES: C[C@@H]1CN([C@@H](C)CO)C(=O)c2cc(-c3ccccc3)cnc2O[C@H]1CN(C)Cc1ccccc1
AC50 [18]: > 52 µM (inactive)
AC50 [19]: > 52 µM (inactive)
